Series [1] in a line: Brain Penetration In Vivo Assay. The note with it: C57BL6, brain and plasma, 10 mg/kg, mouse, 10 mpk, po, read-out: Ratio of exposure in brain to plasma. Also noted: species or system C57BL6 wild-type mice. As to the method:
Brain Penetration In Vivo Assay
A pharmacokinetic study was performed using C57BL6 wild-type mice (n=3 per experiment) to determine brain and plasma exposure of compounds of the invention. The compound was administered orally in a solution of 5% ETHANOL; 90% PEG 300; 5% TPGS at 5 […] for a final concentration. of 10 mg/kg. Mice were euthanized 1 hour post-dose and plasma and brain were collected and frozen for analysis. Brain tissues were homogenized in a 1:1 volume of blank C57BL6 mouse plasma. Concentrations of the compound in plasma and brain homogenate were determined by LC-MS analysis.

For another series, the system named is Caco-2 cells. The note with it: human, Caco-2, 2 h, 3 μM, pH 7.4.
The test system of series [2] is IFNα-induced pSTAT5 in human whole blood (CD3 positive population). Nature of the series: IFNα-Induced STAT Phosphorylation in Human Whole Blood. The note with it: 1 h incubation with compound, 1000 U/mL IFNα A/D for 15 min, read-out: Human Whole blood IFNa pSTAT5 IC50. It is filed as cell-based. The method, then: IFNα-Induced STAT Phosphorylation in Human Whole Blood
After an hour long incubation with compound, human whole blood (drawn with ACD-A as anticoagulant) was stimulated with 1000 U/mL recombinant human IFNα A/D (R&D Systems 11200-2) for 15 min. The stimulation was stopped by adding Fix/Lyse buffer (BD 558049). Cells were stained with a CD3 FITC antibody (BD 555916), washed, and permeabilized on ice using Perm III buffer (BD 558050). Cells were then stained with an Alexa-Fluor 647 pSTAT5 (pY694) antibody (BD 612599) for 60 min prior to analysis on the iQue Plus. The amount of pSTAT5 expression was quantitated by median fluorescence intensity after gating on the CD3 positive population.

The nature of a further series: in vitro. The note with it: human, Caco-2, pH 7.4.

Results on eight compounds are retold here after patent US11884650B2, “Substituted heterocyclic compounds” (BRISTOL-MYERS SQUIBB COMPANY, priority 2021, dated 2024).

Regarding `CCC(=O)c1cnc(NC(=O)C2CC2)cc1Nc1cccc(-c2ncn(C)n2)c1OC` [B, reference compound], the Kp at 1 h in series [1] stood at 0.05.
As a reminder, the IC50 is the concentration needed to halve the response being measured. “N-(4-((3-fluoro-2-methoxy-3-(2-methyl-2H-1,2,3-triazol-4-yl)phenyl)amino)-5-propionylpyridin-2-yl)cyclopropanecarboxamide [Example 5]”: the “Caco-2 AB” value in the series on Caco-2 cells came out at 258 nm/s. Moreover, in series [2], the half-maximal inhibitory concentration (IC50) was found to be 710 nM.
For the compound `CCC(=O)c1cnc(NC(=O)C2CC2)cc1Nc1nccc(-c2ncn(C)n2)c1OC` [A, reference compound], the Kp at 1 h in series [1] worked out at 0.14.
What is called Papp A→B is how fast a substance crosses the layer from the apical side. What is called efflux ratio is a quotient of directional permeabilities that is used to spot active efflux. As to `CCC(=O)c1cnc(NC(=O)C2CC2)cc1Nc1nccc(-c2cnn(C3CC3)n2)c1OC` [Example 2, N-(4-((3-methoxy-4-(2-cyclopropyl-2H-1,2,3-triazol-4-yl)pyridin-2-yl)amino)-5-propionylpyridin-2-yl)cyclopropanecarboxamide], in the series “in vitro”, the Papp A→B at 2 h, 3 μM stood at 18 ×10⁻⁶ cm/s and the efflux ratio at 2 h, 3 μM was 0.2. Also, the 50% inhibitory concentration (IC50) in series [2] turned out to be 400 nM.
`CCC(=O)c1cnc(NC(=O)C2CC2)cc1Nc1nccc(-c2cnn(C)n2)c1OC` [Example 1, N-(4-((3-methoxy-4-(2-methyl-2H-1,2,3-triazol-4-yl)pyridin-2-yl)amino)-5-propionylpyridin-2-yl)cyclopropanecarboxamide]: in “in vitro”, the Papp A→B at 2 h, 3 μM turned out to be 66.3 ×10⁻⁶ cm/s and the efflux ratio at 2 h, 3 μM amounted to 0.1. In addition, the Kp at 1 h in series [1] worked out at 3.1. In series [2], the half-inhibitory concentration (IC50) is 37 nM.
Consider `CCC(=O)c1cnc(NC(=O)C2CC2)cc1Nc1ccc(F)c(-c2cnn(C)n2)c1OC` [Example 4, N-(4-((4-fluoro-2-methoxy-3-(2-methyl-2H-1,2,3-triazol-4-yl)phenyl)amino)-5-propionylpyridin-2-yl)cyclopropanecarboxamide], for which, in “in vitro”, the Papp A→B at 2 h, 3 μM amounted to 54.5 ×10⁻⁶ cm/s and the efflux ratio at 2 h, 3 μM was 0.4. The IC50 in series [2] stood at 280 nM.
For `CCC(=O)c1cnc(NC(=O)C2CC2)cc1Nc1cccc(-c2cnn(C)n2)c1OC` [Example 3, N-(4-((2-methoxy-3-(2-methyl-2H-1,2,3-triazol-4-yl)phenyl)amino)-5-propionylpyridin-2-yl)cyclopropanecarboxamide], in the series “in vitro”, the apical-to-basolateral permeability (Papp A→B) at 2 h, 3 μM is 18.3 ×10⁻⁶ cm/s and the efflux ratio at 2 h, 3 μM is 0.5. Also, the Kp at 1 h in series [1] is 3. In addition, in series [2], the 50% inhibitory concentration (IC50) came to 460 nM.
As to “N-(4-((3-methyl-2-methoxy-3-(2-methyl-2H-1,2,3-triazol-4-yl)phenyl)amino)-5-propionylpyridin-2-yl)cyclopropanecarboxamide [Example 6]”, in the series with Caco-2 cells, the “Caco-2 AB” value is on record as 152 nm/s. The IC50 in series [2] amounted to 770 nM.
